Laboratory results reported in ChEMBL document CHEMBL3244230, “Synthesis and gastric antisecretory properties of 15-deoxy-16-hydroxyprostaglandin E analogues” (1977).
Active and inactive are the calls of the source. No cut-off for these calls is given here.

What was measured:
Canis familiaris [1] = assay: Gastric antisecretory activity in iv dosed Mongrel dog with heidenhain pouch assessed as inhibition of histamine-induced total acid output by titrimetric method; format: functional; conditions: Canis lupus familiaris, read-out: ID50 (the source's name)
Canis familiaris [2] = assay: Gastric antisecretory activity in Mongrel dog with heidenhain pouch assessed as inhibition of histamine-induced total acid output at 0.1 to 100 ug/kg, iv by titrimetric method relative to PGE1; format: functional, Canis lupus familiaris
Canis familiaris [3] = assay: Gastric antisecretory activity in Mongrel dog with heidenhain pouch assessed as inhibition of histamine-induced total acid output at 30 ug/kg, iv by titrimetric method; format: functional, organism-based; conditions: Canis lupus familiaris

| SMILES | ED50 (Canis familiaris [1]) [µg/kg] | fold change (FC) (Canis familiaris [2]) | inhibition (Canis familiaris [3]) |
| --- | --- | --- | --- |
| CCCCC[C@H](O)/C=C/[C@H]1[C@H](O)CC(=O)[C@@H]1CCCCCCC(=O)O [ALPROSTADIL] | 6.7 | – | – |
| CCCCC(C)(O)C/C=C\[C@H]1[C@H](O)CC(=O)[C@@H]1CCCCCCC(=O)OC (mixture of isomers) | 39.8 | 0.17 | – |
| CCCCC(O)C/C=C/[C@H]1[C@H](O)CC(=O)[C@@H]1C/C=C\CCCC(=O)OC (mixture of isomers) | 4.1 | 1.9 | – |
| CCCCC[C@H](O)/C=C/[C@H]1[C@H](O)CC(=O)[C@@H]1CCCCCCC(=O)OC | 3.8 | 2.3 | – |
| CCCCC(C)(O)C/C=C/[C@H]1[C@H](O)CC(=O)[C@@H]1C/C=C\CCCC(=O)OC (mixture of isomers) | 0.3 | 24.9 | – |
| CCCC(C)(C)C(O)C/C=C/[C@H]1[C@H](O)CC(=O)[C@@H]1CCCCCCC(=O)OC (mixture of isomers) | – | – | inactive |
| CCCCC(C)(O)C/C=C/[C@H]1[C@@H](O)CC(=O)[C@@H]1CCCCCCC(=O)OC (mixture of isomers) | 16.9 | 0.21 | – |
| CCCCC(C)(O)CCC[C@H]1[C@H](O)CC(=O)[C@@H]1CCCCCCC(=O)OC (mixture of isomers) | 5.9 | 0.98 | – |
| CCCCC(O)(CC)C/C=C/[C@H]1[C@H](O)CC(=O)[C@@H]1CCCCCCC(=O)OC (mixture of isomers) | 27.8 | 0.21 | – |
| CCCCC(O)C/C=C/[C@H]1[C@H](O)CC(=O)[C@@H]1CCCCCCC(=O)OC (mixture of isomers) | 5.4 | 0.7 | – |
| CCCCC(O)C(C)(C)/C=C/[C@H]1[C@H](O)CC(=O)[C@@H]1CCCCCCC(=O)OC (mixture of isomers) | 140 | 0.05 | – |
| CCCCC(C)(O)C/C=C/[C@H]1[C@H](O)CC(=O)[C@@H]1CCCCCCC(=O)OC (mixture of isomers) [MISOPROSTOL] | 0.16 | 47.8 | – |
| CCCCCC(C)(O)C/C=C/[C@H]1[C@H](O)CC(=O)[C@@H]1CCCCCCC(=O)OC (mixture of isomers) | 0.31 | 19.9 | – |
| CCCCC(C)(O)C/C=C/[C@H]1CCC(=O)[C@@H]1CCCCCCC(=O)O (mixture of isomers) | 4.3 | 1.5 | – |
